We go through 1 molecule from ChEMBL document CHEMBL5137013 (Eur J Med Chem, 2022).

One experiment deals with HeLa. The experiment in a line: Cytotoxicity against human HeLa cells assessed as reduction in cell viability measured after 24 hrs by MTT assay. It is filed as functional, cell-based. For orientation: Formazan colour is commonly taken as a measure of viable cells.
Experiment [1] in a line: Resistance index, ratio of IC50 for human A549/TxR cells to IC50 for human A549 cells. It is filed as functional.
Experiment [2] is described as follows: Cytotoxicity against human A549/TxR cells assessed as reduction in cell viability measured after 24 hrs by MTT assay. It is filed as functional, cell-based.
For experiment [3], the system named is HT-29. The experiment can be described thus: Antitumor activity against human HT-29 cells xenografted in BALB/c nude mouse assessed as reduction in tumor weight at 20 mg/kg, ip administered as 2 days interval for 3 weeks and measured 3 weeks post-initial dosing relative to control. It is filed as functional. Set-up: scale not given: the % may be the effect or the level left. In general terms: In xenograft studies the graft and the host belong to different species.

For experiment [4], the system named is HT-29. The experiment can be described thus: Cytotoxicity against human HT-29 cells assessed as reduction in cell viability measured after 24 hrs by MTT assay. It is filed as functional, cell-based. The conditions noted are these: HT-29, 24 h.
In the next experiment the test system is MDA-MB-231. The experiment in a line: Cytotoxicity against human MDA-MB-231 cells assessed as reduction in cell viability measured after 24 hrs by MTT assay. It is filed as functional, cell-based. The note with it: MDA-MB-231, 24 h.
Experiment [5] can be described thus: Cytotoxicity against human MCF7/TxR cells assessed as reduction in cell viability measured after 24 hrs by MTT assay. It is filed as functional, cell-based.
Experiment [6] in a line: Resistance index, ratio of IC50 for human MCF7/TxR cells to IC50 for human MCF7 cells. It is filed as functional.
The subject of a further experiment is A549. The experiment in a line: Cytotoxicity against human A549 cells assessed as reduction in cell viability measured after 24 hrs by MTT assay. The note with it: A549, 24 h.
For the next experiment, the system named is MCF7. The experiment can be described thus: Cytotoxicity against human MCF7 cells assessed as reduction in cell viability measured after 24 hrs by MTT assay. The note with it: MCF7, 24 h.
Experiment [7] in a line: Inhibition of porcine brain tubulin polymerization measured at 1 min interval for 60 mins by fluorescence assay. Set-up: species or system Sus scrofa.

As a reminder, the IC50 is the concentration at which inhibition is half-maximal. As for `COc1ccc(/C=C\c2cc(OC)c(OC)c(OC)c2)cc1O` [COMBRETASTATIN A4], the half-maximal inhibitory concentration (IC50) in the experiment on HeLa is 7 nM; in [2], 96 nM; in the experiment with HT-29 [4], 430 nM; in the experiment with MDA-MB-231 it was 13 nM; in experiment [5] it was 17 nM; in the experiment with A549 it was 46 nM. Further, the IC50 in the experiment on MCF7 came out at 9 nM; in [7], 1210 nM. Also, the “Ratio IC50” value in experiment [1] is 2.1; in experiment [6], 1.8. The Activity in the experiment on HT-29 [3] is reported as 17.4%.
